Measurements taken from patent US6864086B2, “Nitric oxide-scavenging system for culturing oocytes, embryos, or other cells” (Board of Supervisors of Louisiana State University and …, priority 1998, dated 2005).

Test system: bovine embryos
Experiment: Example 9: L-NAME (1 or 1000 nM) added to mBECM containing serum and Hb, pre-hatching development
Format: cell-based
Design: key to Least square mean of embryos developed to 16-cell / Least square mean of embryos developed to Blastocyst / Least square mean of embryos developed to 2-cell / Least square mean of embryos developed to 8-cell / Least square mean of embryos developed to Morula: fraction developed; each embryo scored 1 = developed, 0 = not developed
Settings: for Number of embryos developed to 2-cell / Number of embryos developed to 8-cell / Number of embryos developed to 16-cell / Number of embryos developed to Morula / Number of embryos developed to Blastocyst: 96 embryos; for Number of embryos developed to 2-cell / Least square mean of embryos developed to 2-cell: 48 h; for Number of embryos developed to 8-cell / Least square mean of embryos developed to 8-cell: 60 h; for Number of embryos developed to 16-cell / Least square mean of embryos developed to 16-cell: 120 h; for Number of embryos developed to Morula / Least square mean of embryos developed to Morula: 144 h; for Number of embryos developed to Blastocyst / Least square mean of embryos developed to Blastocyst: 192 h
Procedure: The basic medium used for maturation of oocytes was tissue culture medium (TCM)-199 with Earle's salts, buffered with 25 mM HEPES (Gibco BRL, Grand Island, N.Y.) and supplemented with 10% (v/v) heat-inactivated fetal bovine serum (FBS; Hyclone Laboratories, Logan, Utah), 1 μg/ml estradiol-17β (NOBL Laboratories, Sioux Center, Iowa), 3 μg/ml bovine FSH (NOBL Laboratories), 6 μg/ml bovine LH (NOBL Laboratories), and 25 μg/ml gentamycin (Sigma Chemical Co., St. Louis, Mo.). The basic medium used for treatment of spermatozoa and fertilization of oocytes was a modified Tyrode's medium (J. Parrish et al., Capacitation of bovine sperm by heparin. Biol. Reprod. 38:1171-1180 (1988)), supplemented with 0.25 mM sodium pyruvate (Gibco BRL), 6 mg/ml fatty acid (FA)-free BSA (No. A-6003, Sigma), 15 μg/ml calcium heparin from porcine intestinal mucosa (183 USP/mg; H-8398, Sigma), and 25 μg/ml gentamycin. Modified bovine embryo culture medium (mBECM) containing 10 μM β-mercaptoethanol was used for culture of embryos, as described in J. Lim et al., “Roles of growth factors in the development of bovine embryos fertilized in vitro and cultured singly in a defined medium,” Reprod. Fertil. Dev., 8:1199-1205 (1996). mBECM supplemented with 10% (v/v) FBS was used for co-culturing inseminated oocytes with CGC. Osmolarity of the medium was maintained within the range of 265-290 mOsm.
All cumulus-oocyte complexes (COC) were collected in Madison, Wis. (BOMED, Inc.) and were shipped in 2 ml of maturation medium in a battery powered incubator via overnight express mail service. Oocytes matured during transit and arrived within 24 h after exposure to maturation medium, pre-equilibrated at 39° C. in 5% CO2 in air. At 22 to 24 h after exposure to the medium, the COCs were inseminated in vitro as described in J. Lim et al., “Intracytoplasmic glutathione concentration and the role of β-mercaptoethanol in preimplantation development of bovine embryos,” Theriogenology, 46:429-439 (1996). At 18 h post-insemination, COCs were cultured in groups (28-40 embryos) in a 4-well multidish (Nunc, Roskilde, Denmark) containing 0.8-ml of mBECM. Embryos were dislodged from CGC at 36 to 48 h post-insemination.
In Example 9, IVF embryos were cultured in MBECM supplemented as follows: 1) no addition (control), 2) Hb (1 μg/ml), 3) Hb plus L-NAME (1 nM), and 4) Hb plus L-NAME (1000 nM). Embryonic development was evaluated up to 192 h post-insemination. A total of 384 oocytes were inseminated, and were randomly and equally allotted to 4 replicates.
Embryos developed to the 2-cell, 8-cell, 16-cell, morula, and blastocyst stages at the pertinent observation times were individually scored ‘1’ (developed). Embryos that had not developed to these stages at the same times were scored ‘0’ (non-developed). Sums of the scores at each stage of development were evaluated by analysis of variance using a general linear model (PROC-GLM) in the SAS statistical programming package (1991). In Example 8, the combined effects of Hb addition and month of oocyte collection were first examined in a 2×7 factorial arrangement. Overall differences in embryonic development in Hb-free and Hb-containing culture systems were further evaluated. […] Differences were regarded as statistically significant where P values were less than 0.05.

**Q.** What does the source list for `COC(=O)[C@@H](N)CCCN=C(N)N[N+](=O)[O-].Cl` [L-NAME, N^G-Lω-nitro-L-arginine methyl ester hydrochloride]?
**A.** Number of embryos developed to 2-cell (L-NAME 1 nM with Hb 1 μg/ml): 78; Number of embryos developed to 8-cell (L-NAME 1 nM with Hb 1 μg/ml): 60; Number of embryos developed to 16-cell (L-NAME 1 nM with Hb 1 μg/ml): 46; Number of embryos developed to Morula (L-NAME 1 nM with Hb 1 μg/ml): 38; Number of embryos developed to Blastocyst (L-NAME 1 nM with Hb 1 μg/ml): 26; Least square mean of embryos developed to 2-cell (L-NAME 1 nM with Hb 1 μg/ml): 0.813; Least square mean of embryos developed to 8-cell (L-NAME 1 nM with Hb 1 μg/ml): 0.625; Least square mean of embryos developed to 16-cell (L-NAME 1 nM with Hb 1 μg/ml): 0.479; Least square mean of embryos developed to Morula (L-NAME 1 nM with Hb 1 μg/ml): 0.396; Least square mean of embryos developed to Blastocyst (L-NAME 1 nM with Hb 1 μg/ml): 0.271; Number of embryos developed to 2-cell (L-NAME 1000 nM with Hb 1 μg/ml): 70; Number of embryos developed to 8-cell (L-NAME 1000 nM with Hb 1 μg/ml): 50; Number of embryos developed to 16-cell (L-NAME 1000 nM with Hb 1 μg/ml): 40; Number of embryos developed to Morula (L-NAME 1000 nM with Hb 1 μg/ml): 28; Number of embryos developed to Blastocyst (L-NAME 1000 nM with Hb 1 μg/ml): 19; Least square mean of embryos developed to 2-cell (L-NAME 1000 nM with Hb 1 μg/ml): 0.729; Least square mean of embryos developed to 8-cell (L-NAME 1000 nM with Hb 1 μg/ml): 0.521; Least square mean of embryos developed to 16-cell (L-NAME 1000 nM with Hb 1 μg/ml): 0.416; Least square mean of embryos developed to Morula (L-NAME 1000 nM with Hb 1 μg/ml): 0.292; Least square mean of embryos developed to Blastocyst (L-NAME 1000 nM with Hb 1 μg/ml): 0.198; further stimulation of embryonic development to the blastocyst stage (L-NAME added to culture medium containing Hb, P>0.07): did not further stimulate
